Patent US4576625A, “Fertilizers containing urea with urease inhibitors” (Huls Aktiengesellschaft, priority 1983, dated 1986)
Where “and” joins values, the source holds several entries; their conditions need not be identical. Equal values may be shown once.

What was measured:
[1] = system: rye grass; assay: Pot tests for rye grass, urea as soil fertilizer optionally with 2% urease inhibitors, compared with KAS (Table 7); format: in vivo; conditions: for N Absorption / Raw Protein % of Dry Subst / Dry Substance: 2% inhibitor where added; for Dry Substance: 5 cuttings
Protocol: (§1) The results of the tests in Mitscherlich pots are compiled in Tables 6 and 7.
In the experiments in Table 7 on rye grass, urea, with and without urease inhibitors, used as a soil fertilizer in application amounts between 0.5 and 1.0 g N/pot, was tested in comparison with KAS. As a product from the maleinimide group, Substance 64 from Table 1, i.e. N-methylmaleinimide was added; from the bromo-nitro compounds, Substance 1 of Table 2, bromo-2-nitropropyl-N-methylcarbamate was added. […] The yield of dry solids scarcely increases as the application of fertilizer increases from 0.75 to 1.0 g N both with urea fertilization alone as well as with the addition of a maleinimide compound.
(§2) The mixtures according to the invention used for the experiments of these tables were produced by powdering the urea prills with said bromo-nitro compounds; optionally, the prills can be sprayed before powdering with a hydrocarbon oil to improve adhesion. The bromo-nitro compounds soluble in liquid fertilizers containing urea pose no problems of distribution in dissolved fertilizers containing urea. In the case of slightly soluble bromo-nitro compounds, stirring must occur during the distribution. Optionally, solutizing agents can be added.

[2] = system: spring wheat, sirocco type; assay: Pot tests with spring wheat, urea or AUS as leaf fertilizer with urease inhibitor (Table 8); format: in vivo
Source text: (In the case of the test series with AUS and urea, equal quantities of N were used. The quantities of the urease inhibitors used were increased in the same way in both test series. If, however, the inhibitor material is related to the use of urea-N, this means that in the case of AUS double the quantity comes into play.)

[3] = system: urease; format: biochemical
[4] = system: rye grass; assay: Pot experiments with rye grass, urea as soil fertilizer with various urease inhibitors (Table 6); format: in vivo; conditions: urea four times 1.0 g N/pot; inhibitor 2% of the urea quantity; loamy sand pH 5.6
Source text: as §1
In Table 6 the various urease inhibitors as urea additives for soil fertilization are compared with one another. Both in overall crop yield as well as in N absorption and in raw protein content, the best results are achieved with bromo-nitro compounds. The maleic derivatives and the quinone product furnish poorer results.
as §2

[5] = system: rats; conditions: oral ingestion by rats; cited from earlier work
[6] = Critical relative humidity (water activity) of fertilizer solutions; format: physicochemical; conditions: 50% urea solution as for 100% salts; between 10° and 30° C.
[7] = AUS leaf fertilizer, inhibitor quantity 4 per 100 g urea-N
[8] = AUS leaf fertilizer, inhibitor quantity 8 per 100 g urea-N
[9] = urea solution leaf fertilizer, inhibitor quantity 2 per 100 g urea-N
[10] = urea solution leaf fertilizer, inhibitor quantity 4 per 100 g urea-N

In the case of `CNC(=O)OCC(C)(Br)[N+](=O)[O-]` (centres unmarked) [Subst. 1-Tab. 3, 2-Bromo-2-nitro-propyl-N--methylcarbamate], the “N Absorption” value ([1]; N fertilization 0.5 g N/pot) is reported as 1432 mg/Pot, the “Raw Protein % of Dry Subst” value ([1]; N fertilization 0.5 g N/pot) is reported as 12.62% and the “Dry Substance” value ([1]; N fertilization 0.5 g N/pot) is reported as 70.9 g/Pot. The “N Absorption” value ([1]; N fertilization 0.75 g N/pot) was 2095 mg/Pot, the “Raw Protein % of Dry Subst” value ([1]; N fertilization 0.75 g N/pot) was 16.43% and the “Dry Substance” value ([1]; N fertilization 0.75 g N/pot) was 79.7 g/Pot. The “N Absorption” value ([1]; N fertilization 1.0 g N/pot) was 2720 mg/Pot, the “Raw Protein % of Dry Subst” value ([1]; N fertilization 1.0 g N/pot) was 19.68% and the “Dry Substance” value ([1]; N fertilization 1.0 g N/pot) was 86.4 g/Pot. For the same compound, the “comparison of fertilizer combinations (in words)” value ([1]; urea + 2% inhibitor) was “superior to the corresponding mixture with 2% of a maleinimide compound”, the “Dry Substance” value [2, 7] was 68.68 g/pot and the N Absorption [2, 7] was 1058 mg/pot. The “Raw Protein” value [2, 7] was 9.63%, the “Dry Substance” value [2, 8] was 68.69 g/pot and the N Absorption [2, 8] was 1051 mg/pot. For the same compound, the “Raw Protein” value [2, 8] was 9.56%, the “Dry Substance” value [2, 9] was 65.11 g/pot and the N Absorption [2, 9] was 951 mg/pot. For the same compound, the “Raw Protein” value [2, 9] was 9.13%, the “Dry Substance” value [2, 10] was 68.36 g/pot and the N Absorption [2, 10] was 1046 mg/pot. The “Raw Protein” value [2, 10] was 9.56%, the “N losses of the soil through NH3 volatilization as % of the urea-N quantities used” value [3] was 0.3% and 0.0% and the “N losses of the soil through NH3 volatilization calculated as % of the urea-N quantities used” value [3] was 0.0% and 1.2% and 0.1%. The “Dry Substance 1st-5th Cutting” value [4] was 131.7 g/Pot, the N-absorption [4] was 3.29 g/Pot and the “Raw Protein % in Dry Substance” value [4] was 15.6%.

With `CCC(Br)(COC(=O)NC)[N+](=O)[O-]` (centres unmarked) [Subst. 2-Tab. 3, 2-Bromo-2-nitro-butyl-N--methylcarbamate] the “N losses of the soil through NH3 volatilization as % of the urea-N quantities used” value [3] was 0.5% and 0.0%.

In the case of `O=[N+]([O-])C(Br)(CO)CO` [Subst. 3-Tab. 3, 2-Bromo-2-nitro-propan-1,3-diol], the LD50 [5] is listed as 400 mg/kg, the “N losses of the soil through NH3 volatilization as % of the urea-N quantities used” value [3] is listed as 0.9% and 0.0% and the “N losses of the soil through NH3 volatilization calculated as % of the urea-N quantities used” value [3] is listed as 0.0% and 0.5%. The “Dry Substance 1st-5th Cutting” value [4] was 128.6 g/Pot, the N-absorption [4] was 3.15 g/Pot and the “Raw Protein % in Dry Substance” value [4] was 15.3%.

For `CC(Br)(CO)[N+](=O)[O-]` (centres unmarked) [Subst. 4-Tab. 3, 2-Bromo-2-nitro-propanol], the “N losses of the soil through NH3 volatilization as % of the urea-N quantities used” value [3] was 2.1% and 0.0%, the “Dry Substance 1st-5th Cutting” value [4] was 127.8 g/Pot and the N-absorption [4] was 3.09 g/Pot. For the same compound, the “Raw Protein % in Dry Substance” value [4] was 15.1%.

In the case of `CC(C)(C)C(O)C(Br)[N+](=O)[O-]` (centres unmarked) [Subst. 5-Tab. 3, 1-Bromo-1-nitro-3,3.dimethyl-butane-2-ol], the “N losses of the soil through NH3 volatilization as % of the urea-N quantities used” value [3] is reported as 4.7% and 0.0%.

In the case of `CCCC(O)C(Br)[N+](=O)[O-]` (centres unmarked) [Subst. 6-Tab. 3, 1-Bromo-1-nitro-pentanol-2], the “N losses of the soil through NH3 volatilization as % of the urea-N quantities used” value [3] is reported as 6.5% and 0.0%.

For `CCC(O)C(Br)[N+](=O)[O-]` (centres unmarked) [Subst. 7-Tab. 3, 1-Bromo-1-nitro-butanol-2], the “N losses of the soil through NH3 volatilization as % of the urea-N quantities used” value [3] was 8.3% and 0.0%.

With `CC(C)C(O)C(Br)[N+](=O)[O-]` (centres unmarked) [Subst. 8-Tab. 3, 1-Bromo-1-nitro-3-methyl-butane-2-ol] the “N losses of the soil through NH3 volatilization as % of the urea-N quantities used” value [3] was 10.0% and 0.1%.

For `CC(O)C(Br)[N+](=O)[O-]` (centres unmarked) [Subst. 11-Tab. 3, 1-Bromo-1-nitro-propanol-2], the “N losses of the soil through NH3 volatilization as % of the urea-N quantities used” value [3] was 2.3%.

With `O=C1C2C3C=CC(C3)C2C(=O)N1SC(Cl)(Cl)Cl` (centres unmarked) [Subst. 23-Tab. 2, reference compound] the “urease inhibitor effect (in words)” value [3] was “No outstanding inhibitor effect”.

In the case of `O=C1C=CC(=O)C=C1` [Subst. 31-Tab. 1, 1,4-Benzoquinone], the “Dry Substance 1st-5th Cutting” value [4] is reported as 118.3 g/Pot, the N-absorption [4] is reported as 2.54 g/Pot and the “Raw Protein % in Dry Substance” value [4] is reported as 13.4%.

In the case of `CC(=O)OCN1C(=O)C=CC1=O` [Subst. 48-Tab. 1, N--Acetoximethylmaleinimide], the “urease inhibitor effect (in words)” value [3] is reported as “best inhibitor effects”, the “Dry Substance 1st-5th Cutting” value [4] is reported as 129.7 g/Pot and the N-absorption [4] is reported as 2.85 g/Pot. For the same compound, the “Raw Protein % in Dry Substance” value [4] was 13.7%.

With `CCN1C(=O)C=CC1=O` [Subst. 56-Tab. 1, N--Ethylmaleinimide, reference compound] the “urease inhibitor effect (in words)” value [3] was “best inhibitor effects”.

For `O=C1C=CC(=O)N1` [Subst. 61-Tab. 1, Maleinimide, reference compound], the “urease inhibitor effect (in words)” value [3] was “best inhibitor effects”.

In the case of `CN1C(=O)C=CC1=O` [Subst. 64-Tab. 1, N--Methylmaleinimide, reference compound], the “N Absorption” value ([1]; N fertilization 0.5 g N/pot) is reported as 1285 mg/Pot, the “Raw Protein % of Dry Subst” value ([1]; N fertilization 0.5 g N/pot) is reported as 11.66% and the “N Absorption” value ([1]; N fertilization 0.75 g N/pot) is reported as 1676 mg/Pot. The “Raw Protein % of Dry Subst” value ([1]; N fertilization 0.75 g N/pot) was 12.82%, the “N Absorption” value ([1]; N fertilization 1.0 g N/pot) was 1944 mg/Pot and the “Raw Protein % of Dry Subst” value ([1]; N fertilization 1.0 g N/pot) was 14.84%. The “urease inhibitor effect (in words)” value [3] was “best inhibitor effects”.

With `O=C1C=CC(=O)N1CO` [Subst. 66-Tab. 1, N--Methylolmaleinimide] the “urease inhibitor effect (in words)” value [3] was “best inhibitor effects”, the “Dry Substance 1st-5th Cutting” value [4] was 125.0 g/Pot and the N-absorption [4] was 2.85 g/Pot. The “Raw Protein % in Dry Substance” value [4] was 14.3%.

For `O=C(Nc1ccccc1)OCN1C(=O)C=CC1=O` [Subst. 68-Tab. 1, N--Methylolmaleinimide phenyl urethane], the “Dry Substance 1st-5th Cutting” value [4] was 124.0 g/Pot, the N-absorption [4] was 2.83 g/Pot and the “Raw Protein % in Dry Substance” value [4] was 14.3%.

In the case of `NC(N)=O` [urea], the “CRH value (critical relative humidity)” value [6] is reported as 75-76%.
